Measurements as given in patent publication US8334316B2, “Substituted organosulfur compounds and methods of using thereof” (ACEA Biosciences, Inc., priority 2004, dated 2012).

What was measured:
Type in all cases: cell-based
[1] = test system: MCF7 (human breast cancer cell line); assay: RT-CES system cell proliferation/cytotoxicity IC50, MCF7; details: time point of maximum inhibition
Description: The RT-CES system comprises three components, an electronic sensor analyzer, a device station and 16× or 96× microtiter plate devices. Microelectrode sensor array was fabricated on glass slides with lithographical microfabrication methods and the electrode-containing slides are assembled to plastic trays to form electrode-containing wells. Each 16× (or 96×) microtiter plate device used in RT-CES system comprises up to 16 (or 96) such electrode-containing wells. The device station receives the 16× or 96× microtiter plate devices and is capable of electronically switching any one of the wells to the sensor analyzer for impedance measurement. In operation, the devices with cells cultured in the wells are placed into a device station that is located inside an incubator. Electrical cables connect the device station to the sensor analyzer. Under the RT-CES software control, the sensor analyzer can automatically select wells to be measured and continuously conduct impedance measurements. The impedance data from the analyzer is transferred to a computer, analyzed and processed by the integrated software.
To quantify cell status based on the measured cell-electrode impedance, a parameter termed Cell Index is derived, according to
[formula] where Rb(f) and Rcell(f) are the frequency dependent electrode resistances (a component of impedance) without cells or with cell present, respectively. N is the number of the frequency points at which the impedance is measured. Thus, Cell Index is a quantitative measure of the status of the cells in an electrode-containing well. Under the same physiological conditions, more cells attached on to the electrodes leads to larger Rcell(f) value, leading to a larger value for Cell Index. Furthermore, for the same number of cells present in the well, a change in the cell status such as morphology will lead to a change in the Cell Index. For example, an increase in cell adhesion or cell spreading leads to larger cell-electrode contact area which will lead to an increase in Rcell(f) and thus a larger value for Cell Index. The Cell Index may also be calculated using a formula different from the one described here. Other methods for calculating the Cell Index based on impedance measurement can be found in PCT application number PCT/US04/37696, fined on Nov. 12, 2004, PCT application number PCT/US05/04481, filed on Feb. 9, 2005, U.S. patent application Ser. No. 10/987,732, filed on Nov. 12, 2004, and U.S. patent application Ser. No. 11/055,639, filed on Feb. 9, 2005.
MCF-7 cells (human breast cancer cells) were seeded into wells of 16× or 96× microtiter plate devices (electronic plates, i.e., the plates comprise microelectrode sensor arrays in the wells of the plate) with an initial seeding density of 10,000 cells per well and were pre-incubated in incubator under standard cell culture conditions for about 44 hrs. Dibenzyl trisulfide solution in DMSO was added into wells following the incubation period. The cell status was monitored prior to and after the compound addition using RT-CES system. The cell indexes of different wells were between 1.2 and 1.5 just before the compound addition. […] The cell index was normalized against the cell index values at a time point just after compound addition (about 44.5 hrs after cell seeding).
For the assay performed on the RT-CES system, the cells were seeded into the 16× or 96× microtiter plate devices (electronic plates, i.e., the plates comprise microelectrode sensor arrays in the wells of the plate) at the seeding density ranging from 5000 cells/well to 15,000 cells/well. The cells were incubated at 5% CO2 and 37° C. for overnight till the cell indices reached the growth phase where the cell index was between 0.8 and 1.2. Serially diluted compounds were then added to the cells followed by dynamic monitoring of the effect of the compounds on the cell proliferation and cytotoxicity. […]

[2] = test system: HT1080 (human fibrosarcoma cell line); assay: MTT assay IC50 (48 h), HT1080; details: HT-1080, HT1080, 48 hours
Procedure: (§1) In another assay format, a test compound is assayed for its cytotoxicity and/or cytostatic effect on certain cancer cell types, using endpoint assay methods. Cells in the NCI cancer cell panel may be used. Cells after a pre-incubation for certain length of time (for example, 8 hrs or 24 hrs) are incubated with a test compound at serially-diluted concentrations (for example, five 10-fold dilutions) for 24 hrs and/or 48 hrs, and/or other specific length of time. The dose dependent cytotoxicity and/or cytostatic effects of test compounds can then be tested and evaluated using the 3-(4,5-dimethylthiazol-2-yl)-2,5-diphenyltetrazolium bromide (MTT) assay method, as described by, for example, Boyd (In Principle of Practice of Oncology, Devita, J. T., Hellman, S. and Rosenberg S. A. (Eds), 1989, Vol, 3, PPO Update, No. 10).
(§2) The anticancer potency of DBTS and its derivatives were tested in 8 different types of human cancer cell lines using the RT-CES system and MTT assay. The 8 cancer cell lines were HT1080 (the human fibrosarcoma cell line), H460 (human non small cell lung cancer cell line), OVCAR4 (the human ovarian cancer cell line), MCF7 (human breast cancer cell line) MDA-MB231 (M231, the human breast cancer cell line) A2780 (the human […] cancer cell line) Jurkat (the human T cell leukemia cell line). The test DBTS derivatives include ACEA100107, ACEA100108, ACEA100109, ACEA100111, ACEA100115, ACEA100116, ACEA100117, ACEA100118, ACEA100119, and ACEA100120.
(§3) For the MTT assay, the cells were seeded into the regular 96× well plates at the cell seeding density ranging from 5000 cells/well to 15,000 cells/well. The cells were incubated at 5% CO2 and 37° C. for overnight. The derivatives were serially diluted and added to the cells. The treatment was terminated after 48 hours of incubation by adding MTT staining reagent. After 4 hours, the staining was stopped by the stop buffer and then the calorimetric measurement was carried out on a microtiter plate reader at dual wave length, 650 nm and 550 nm.

[3] = test system: H460 (human non small cell lung cancer cell line); assay: MTT assay IC50 (48 h), H460; details: NCI-H460, H460, 48 hours
Procedure: as §1, §2, §3

[4] = test system: H460 (human non small cell lung cancer cell line); assay: RT-CES system cell proliferation/cytotoxicity, H460; details: NCI-H460, time point of maximum inhibition
Procedure: In operation, the devices with cells cultured in the wells are placed into a device station that is located inside an incubator. […] Under the RT-CES software control, the sensor analyzer can automatically select wells to be measured and continuously conduct impedance measurements. The impedance data from the analyzer is transferred to a computer, analyzed and processed by the integrated software.
H460 cells (human lung cancer cells) were seeded into wells of 16× or 96× microtiter plate devices (electronic plates, i.e., the plates comprise microelectrode sensor arrays in the wells of the plate) with an initial seeding density of 8000 cells per well and were pre-incubated in incubator under standard cell culture conditions for about 22 hrs. […] The cell status was monitored prior to and after the compound addition using RT-CES system. […] The cell index was normalized against the cell index values at a time point just after compound addition (about 23 hrs after cell seeding).
For the assay performed on the RT-CES system, the cells were seeded into the 16× or 96× microtiter plate devices (electronic plates, i.e., the plates comprise microelectrode sensor arrays in the wells of the plate) at the seeding density ranging from 5000 cells/well to 15,000 cells/well. The cells were incubated at 5% CO2 and 37° C. for overnight till the cell indices reached the growth phase where the cell index was between 0.8 and 1.2. Serially diluted compounds were then added to the cells followed by dynamic monitoring of the effect of the compounds on the cell proliferation and cytotoxicity. The time-dependent IC50 values for each derivative were calculated based the dose responses of cell index value at different time points after compound treatment.

| Compound | IC50 [1] [µM] | IC50 [2] [µM] | IC50 [3] [µM] | IC50 [4] [µM] |
| --- | --- | --- | --- | --- |
| c1ccc(CSSSCc2ccccc2)cc1 [DBTS, Dibenzyl trisulfide] | 6.6 | 2.55 | 14.2 | 11.1 |
| Clc1ccccc1CSSSCc1ccccc1Cl [ACEA100115, Di(o-chlorobenzyl)trisulfide] | 7.8 | 12.4 | 11.8 | 23.2 |
| Fc1ccc(CSSSCc2ccc(F)cc2)cc1 [ACEA100108, Di(p-fluorobenzyl)trisulfide] | 2.15 | 19 | 10.2 | 9.2 |
| Clc1ccc(CSSSCc2ccc(Cl)cc2)cc1 [ACEA100118, Di(p-chlorobenzyl)trisulfide] | 4.4 | 1.15 | 7.95 | 9.6 |
| Cc1cccc(CSSSCc2cccc(C)c2)c1 [ACEA100116, di(m-methylbenzyl)trisulfide] | 2.75 | 2.2 | 5.4 | 12.5 |
| FC(F)(F)c1cccc(CSSSCc2cccc(C(F)(F)F)c2)c1 [ACEA100117, Di(m-trifluoromethylbenzyl)trisulfide] | 48.8 | 47.5 | > 50 | > 50 |
